In PMC10969742, “A Phase I Study of the Oral Dual-Acting Pan-PI3K/mTOR Inhibitor Bimiralisib in Patients with Advanced Solid Tumors” (Cancers, 2024):

What was measured:
advanced solid tumors = test: Efficacy: objective tumor response per RECIST 1.1; assay type: in vivo, human
Protocol: Efficacy of treatment was determined by measuring reported lesions at baseline and after every 2 cycles.

[1] = test system: head and neck squamous cancer with loss of function NOTCH1T1997M mutations; details: eight patients, intermittent bimiralisib regimen; cited from earlier work
[2] = PR patient, head and neck squamous cancer, NOTCH1T1997M, intermittent schedule A 200 mg

Nc1cc(C(F)(F)F)c(-c2nc(N3CCOCC3)nc(N3CCOCC3)n2)cn1 [bimiralisib, 5-(4,6-Dimorpholino-1,3,5-triazin-2-yl)-4-(trifluoromethyl)pyridin-2-amine]
Best Overall Response: Complete response (CR), Number of Patients (advanced solid tumors; All Schedules, n = 70): 0 n (%) | Best Overall Response: Missing (response could not be assessed), Number of Patients (advanced solid tumors; All Schedules, n = 70): 16 (22.9%) n (%) | Best Overall Response: Non-CR/Non-PD, Number of Patients (advanced solid tumors; All Schedules, n = 70): 4 (5.7%) n (%) | Best Overall Response: Partial response, Number of Patients (advanced solid tumors; All Schedules, n = 70): 1 (1.4%) n (%) | Best Overall Response: Progressive disease (PD), Number of Patients (advanced solid tumors; All Schedules, n = 70): 19 (27.1%) n (%) | Best Overall Response: Stable disease, Number of Patients (advanced solid tumors; All Schedules, n = 70): 30 (43%) n (%) | Best Overall Response: Complete response (CR), Number of Patients (advanced solid tumors; Continuous (n = 21)): 0 n (%) | Best Overall Response: Missing (response could not be assessed), Number of Patients (advanced solid tumors; Continuous (n = 21)): 9 (42.9%) n (%) | Best Overall Response: Non-CR/Non-PD, Number of Patients (advanced solid tumors; Continuous (n = 21)): 0 n (%) | Best Overall Response: Partial response, Number of Patients (advanced solid tumors; Continuous (n = 21)): 0 n (%) | Best Overall Response: Progressive disease (PD), Number of Patients (advanced solid tumors; Continuous (n = 21)): 7 (33.3%) n (%) | Best Overall Response: Stable disease, Number of Patients (advanced solid tumors; Continuous (n = 21)): 5 (23.8%) n (%) | Best Overall Response: Complete response (CR), Number of Patients (advanced solid tumors; Intermittent A, n = 25): 0 n (%) | Best Overall Response: Missing (response could not be assessed), Number of Patients (advanced solid tumors; Intermittent A, n = 25): 5 (20%) n (%) | Best Overall Response: Non-CR/Non-PD, Number of Patients (advanced solid tumors; Intermittent A, n = 25): 1 (4%) n (%) | Best Overall Response: Partial response, Number of Patients (advanced solid tumors; Intermittent A, n = 25): 1 (4%) n (%) | Best Overall Response: Progressive disease (PD), Number of Patients (advanced solid tumors; Intermittent A, n = 25): 6 (24%) n (%) | Best Overall Response: Stable disease, Number of Patients (advanced solid tumors; Intermittent A, n = 25): 12 (48%) n (%) | Best Overall Response: Complete response (CR), Number of Patients (advanced solid tumors; Intermittent B, n = 24): 0 n (%) | Best Overall Response: Missing (response could not be assessed), Number of Patients (advanced solid tumors; Intermittent B, n = 24): 2 (8.3%) n (%) | Best Overall Response: Non-CR/Non-PD, Number of Patients (advanced solid tumors; Intermittent B, n = 24): 3 (12.5%) n (%) | Best Overall Response: Partial response, Number of Patients (advanced solid tumors; Intermittent B, n = 24): 0 n (%) | Best Overall Response: Progressive disease (PD), Number of Patients (advanced solid tumors; Intermittent B, n = 24): 6 (25%) n (%) | Best Overall Response: Stable disease, Number of Patients (advanced solid tumors; Intermittent B, n = 24): 13 (54.2%) n (%) | Duration of response (advanced solid tumors; [2]): 8.4 months | Reduction in sum of target lesions per RECIST 1.1 (advanced solid tumors; [2]): 85% | Time to response (advanced solid tumors; [2]): 45 days | Patients with PR as best overall response (advanced solid tumors; all 70 patients): 1.4% | Complete response (CR) (advanced solid tumors; all patients): No patient achieved CR | Patients with SD (advanced solid tumors; all patients, 30 patients): 43.0% | Number of partial responses (advanced solid tumors; all patients, head and neck squamous cancer patient with NOTCH1T1997M mutation): one | Patients with SD (advanced solid tumors; continuous dosing): 23.8% | Best overall response of single patient (advanced solid tumors; head and neck squamous cancer, loss of function NOTCH1T1997M mutation, intermittent schedule A 200 mg): partial response | Patients with SD (advanced solid tumors; intermittent schedule A): 48.0% | Patients with SD (advanced solid tumors; intermittent schedule B): 54.2% | Confirmed PR, number of patients [1]: one | SDs, number of patients [1]: three
